Measured values taken from patent publication US20070059339A1, “1-O-BETA-D-glucopyranosylgeraniol-10,5-olide and use thereof” (ISKRA INDUSTRY CO., LTD., priority 2005, published 2007).
“Also recorded” adds a separate entry of the source. Marks after values point to notes of the source that are not given here.

How the values were obtained:
[1] = Oral administration for two weeks at 2500 mg/kg per day, observation of side effects; type: in vivo; conditions: ten ICR male mice, versus control group
[2] = Hair growth ameliorating action on hair-removed back of mice, transdermal administration; type: in vivo, C3H male mice; conditions: for Hair growth score versus control group (FIG. 9): 10 mg once a day
From the text: 6 week-old C3H male mice (Nippon SLC, body weight: about 30 g) were pre-bred for 1 week, then, divided into two groups of a control group and an administration group (4 mice for each group). Hair on the back of the mice in both groups was removed with an electric shaver, and hair growth effect was investigated. […] For the mice in the control group, 45% water-containing ethanol was transdermally administered instead of the specimen solution for 28 days.
For observation of hair growth condition, hair growth score and hair length were measured.
For measurement of hair growth score, the back of a mouse on which a specimen solution or 45% water-containing ethanol had been applied was visually observed, and based on the conditions directly after hair removal, a case of no change was endowed with 0 point, a case of color change to blue at a center portion on the back was endowed with 1 point, a case of color change from blue black to gray at a center portion on the back was endowed with 2 points, a case of observation of hair growth at a center portion on the back was endowed with 3 points, and a case of covering about 50% at a center portion on the back with back hair and recovery of color before hair removal at a center portion on the back was endowed with 4 points. The score average value and the standard error of the mice in both the groups were measured. Since there was observed […] irregularity in hair growth score between the control group and the administration group, the Mann-Whitney U-test was carried out as a significant difference test between both groups.
On the other hand, for measurement of hair length, part of hair was collected every one week, then, 10 hairs were selected randomly while removing extremely longer hairs and extremely shorter hairs, and lengths of them were measured by a microscope.

[3] = Obesity ameliorating, lipid metabolism ameliorating and hypoglycemic action in mice bred with a high fat diet; type: in vivo, ddY male SPF mice
From the text: 6 week-old ddY male SPF mice (Nippon .SLC, body weight: about 30 g) were pre-bred for 1 week, then, divided into two groups of a control group and an administration group (5 mice for each group). Each of the mice in both the groups was bred for 6 weeks with a high fat diet (lard 40%, corn starch 10%, granulated sugar 9%, mineral mix 4%, vitamin mix 1%, casein 29%, cellulose 5%, lactose 2%). For the mice in the administration group, a specimen solution prepared by dissolving the compound (I) in purified water was continuously administered for 6 weeks with a dose of 250 mg/kg once a day while allowing water-drinking, and the body weight was measured at a frequency of once a week, during the feeding period with the high fat diet. For the mice in the control group, purified water was administered for 6 weeks instead of the specimen solution while allowing water-drinking.
The average value of the body weight of mice in each group and the standard error thereof were measured, and a significant difference test (t-test) between both the groups was carried out.
On the other hand, after completion of the above-mentioned continuous administration allowing water-drinking for 6 weeks, serum was collected from each mouse and blood biochemical values were measured, and liver and fat were excised and the weights of them were measured, respectively. Using the respective measurement results, the average value and the standard error were measured for each group, and a significant difference test (t-test) was carried out between both the groups.

[4] = 250 mg/kg once a day for 6 weeks, average +/- standard error of five mice
[5] = serum after 6 weeks, 250 mg/kg once a day, average +/- standard error of five mice

CC(C)=CC1C/C(=C/CO[C@@H]2OC(CO)[C@@H](O)C(O)C2O)C(=O)O1 (stereo partly drawn) [compound (I), 1-O-β-D-glucopyranosylgeraniol-10,5-olide]
Side effect [1]: did not provide a recognizable side effect; also recorded: no side effect was recognized at all
Hair growth score versus control group (FIG. 9) ([2]; day 7 to day 17 after transdermal administration): tended to be higher
Hair growth score versus control group (FIG. 9) ([2]; days 13, 15 and 16 after transdermal administration, Mann-Whitney U-test): significantly higher
Hair length versus control group ([2]; hair collected every one week, 10 hairs measured by microscope, 10 mg transdermally once a day, data not shown): no significant difference
Weight of fat, around kidney [3, 4]: 0.035 ± 0.010 g
Weight of fat, around posterior abdominal wall [3, 4]: 0.186 ± 0.096 g
Body weight versus control group (FIG. 8) ([3]; 250 mg/kg once a day for 6 weeks, weighed once a week): the body weight transited at a lower level
Blood biochemical value, blood glucose level ([3]; after 6 weeks, 250 mg/kg once a day, average +/- standard error of five mice): 183 +/− 35.7** mg/dL
Weight of liver ([3]; compound 250 mg/kg once a day for 6 weeks, average +/- standard error of five mice): 1.124 ± 0.124 g
Blood biochemical value, total cholesterol [3, 5]: 118 ± 22.3 mg/dL
Blood biochemical value, triglyceride [3, 5]: 26 ± 15.8 mg/dL
